In patent US20250002503A1, “OXADIAZASPIRO COMPOUNDS FOR USE IN THE TREATMENT OF MOTONEURON DEGENERATION OR IN NEUROPROTECTION” (ESTEVE PHARMACEUTICALS, S.A., priority 2021, published 2025):
Like-named read-outs stand apart in the source and are kept apart here.

Tests used:
[1] = system: rhizotomized mice (L4-L5 spinal nerve section); assay: L4-L5 spinal roots injury (rhizotomy): MN survival, glial reactivity, tolerability; settings: for number of spinal MNs in the ipsilateral ventral horn (L4-L5) / astroglial reactivity, GFAP integrated density / microglial reactivity, IBA1 integrated density: 42 dpi, mean±SEM
Method: Briefly, the L4-L5 spinal roots were exposed by a small laminectomy on the right side. Then, roots were cut at the exit from the intervertebral foramina and the root stumps were separated. Mice were cared until recovery in warm environment.
The compounds were dissolved in 0.5% hydroxypropyl-methylcellulose (HPMC; Sigma-Aldrich) in distilled water. The compounds were administered by intraperitoneal (i.p.) route twice daily (bid) in a volume of 10 ml/kg. Administrations were given from 30 min after rhizotomy surgery until 42 days post-injury (dpi), the end of the study; in the SOD1^G93A study, treatments were given from 8 to 16 weeks of age.
At the end of follow up (42 days post-injury (dpi)) for rhizotomy and 16 weeks of age for ALS mice) the animals were deeply anesthetized and transcardially perfused with 4% paraformaldehyde in PBS. The lumbar spinal cord and the TA muscle were harvested and cryopreserved in 30% sucrose solution in PB. The spinal cords were serially cut in 20 μm-thick transverse sections with a cryostat (Leica). For MN counting, L4-L5 spinal cord sections separated 100 μm were stained for 3 h with an acidified solution of 3.1 mM cresyl violet.
Finally, sides were mounted with Fluoromount G. To quantify glial cell reactivity, images of the ventral horn were acquired with an epifluorescence microscope (Nikon Eclipse Ni, Japan) using the same conditions for each analyzed marker. After defining a threshold for background correction, the integrated density of GFAP or Iba1 labeling was measured using ImageJ software.

[2] = in vivo; settings: female, C57-BL6, mouse, ip, 10 mg/kg; for half-life: t1/2 (terminal half-life)
Method: (§2) Blood and brain samples were extracted at selected time points (15 min, 1, 3 and 6 h) from two animals per sampling point. Blood samples were collected by intracardiac puncture into heparinized tubes. Plasma was obtained by blood centrifugation at 4° C. and 2280 g for 10 min. Plasma and brain samples were kept at −80° C. until analysis. Brains were homogenized with Dulbecco's phosphate saline buffer pH 7.4 (4 ml/g tissue). Plasma and brain samples were assayed by ultra-performance liquid chromatography-triple quadrupole mass spectrometry (UPLC-MS/MS) after protein precipitation. Standard pharmacokinetic parameters, such as the area under the curve (AUC), peak plasma concentration (Cmax), time to peak concentration (tmax), and terminal half-life (t1/2) were determined by noncompartmental analysis of the plasma and brain concentration-time curves (Phoenix v.6.2.1.51, Pharsight, CA).

[3] = in vivo; set-up: species or system male SOD1^G93A mice; settings: mouse, ip; for concentration at 15 min: male, SOD1^G93A
Method: Plasma levels were determined in the two in vivo models evaluated to be able to associate the pharmacological activity with the levels present in plasma. […] […] […] Results are expressed as mean±standard deviation (n=2-6).

[4] = Pharmacokinetics in plasma and brain after single i.p. dose; settings: for AUC, brain / Cmax, brain / penetration into the brain / half-life: single i.p. 10 mg/kg; for AUC, brain / Cmax, brain / half-life: female mice; for penetration into the brain: mice; for half-life: t1/2 (terminal half-life)
Method: as §2

[5] = system: SOD1^G93A mice; settings: for NMJ innervation (proportion of innervated endplates) of hindlimb muscle: SOD1^G93A mice at 16 weeks; for NMJ innervation (proportion of innervated endplates) of hindlimb muscle / astrocyte activation (GFAP) in ventral horn: compounds 5 mg/kg; for NMJ innervation (proportion of innervated endplates) of hindlimb muscle / astrocyte activation (GFAP) in ventral horn / CMAP amplitude of TA and plantar muscles: PRE-084 0.25 mg/kg i.p. bid; for number of surviving spinal MNs per section / astrocyte activation (GFAP) in ventral horn / CMAP amplitude of TA and plantar muscles: SOD1^G93A mice; for number of surviving spinal MNs per section: 16 weeks of age, mean±SEM; for astrocyte activation (GFAP) in ventral horn: 16 weeks; for CMAP amplitude of TA and plantar muscles: 11 and 13 weeks, compound 5 mg/kg
Method: Motor nerve conduction tests were performed before the surgery to obtain baseline values and at the end of the follow up in the rhizotomy model, whereas the SOD1^G93A mice were evaluated at 8 weeks (prior to starting drug administration) and then every 2-3 weeks until the end point at 16 weeks of age. The sciatic nerve was stimulated by means of single pulses delivered through needle electrodes placed at the sciatic notch. The compound muscle action potential (CMAP) was recorded from tibialis anterior (TA), gastrocnemius (GM) and plantar interossei muscles with microneedle electrodes (Mancuso et al., 2011). The CMAPs were amplified to measure the latency to the onset and the amplitude from baseline to the maximal negative peak. The mice were anesthetized with pentobarbital (50 mg/kg i.p.) and their body temperature was maintained by means of a thermostated warming pad.
For neuromuscular junctions (NMJ) labeling, 50 μm-thick longitudinal sections of TA muscle were serially cut. Sections were blocked with 5% normal donkey serum and incubated with primary antibodies rabbit anti-synaptophysin (1:500; AB32127, Abcam) and chicken anti-neurofilament 200 (NF200, 1:1000; AB5539, Millipore, USA) 48 h at 4° C. After washes, sections were incubated overnight with secondary antibody Alexa Fluor 594-donkey anti-rabbit and anti-chicken (1:200; A11042-A21207, Invitrogen, USA) and Alexa 488 conjugated α-bungarotoxin (1:500; B13422, Life Technologies, USA). Confocal images were captured (LSM 700 Axio Observer, Carl Zeiss, 40×Oil/z0.5) and the maximum projection images generated from 1.3 μm z projections. The proportion of innervated NMJs was calculated by classifying each endplate as occupied (when presynaptic terminals overly the endplate) or vacant (no presynaptic label in contact with the endplate). At least 60 endplates were analyzed per muscle.

[6] = target: Sig-2R (Homo sapiens, UniProt Q5BJF2); assay: Affinity for the Sig-2R; format: binding; settings: not shown
Sequence of Sig-2R (Q5BJF2 whole entry): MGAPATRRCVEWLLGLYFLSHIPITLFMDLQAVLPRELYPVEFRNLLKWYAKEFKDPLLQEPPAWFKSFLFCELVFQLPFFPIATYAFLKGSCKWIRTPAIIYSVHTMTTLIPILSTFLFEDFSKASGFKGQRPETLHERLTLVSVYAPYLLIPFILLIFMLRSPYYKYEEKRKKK
Method: (§1) A selectivity profile (Spectrum Screen) including a panel with more than 180 binding assays for different receptors, ion channels, transporters and enzymes was performed for compound A and compound B at EurofinsPanlabs according to their specifications.

[7] = system: motoneurons (MNs) in spinal cord organotypic cultures; assay: Spinal cord organotypic cultures (SCOCs) under THA chronic excitotoxicity, SMI-32 positive MN count; format: cell-based, Sprague-Dawley rats; settings: THA 100 μM, 28 DIV
Method: Briefly, the spinal cord was collected and cut in 350 μm thick transverse sections with a Mcllwain Tissue Chopper. Four lumbar sections per sample were transferred onto Millicell-CM nets (0.4 μm, PICM03050, Millipore) in medium [50% (v/v) minimal essential medium (MEM, M5775, Sigma), 2 mM glutamine, 25 mM HEPES, 25% (v/v) Hank's Balanced Salt Solution (HBSS^−/−, 14175, Gibco) supplemented with 25.6 mg/ml glucose and 25% (v/v) heat-inactivated horse serum (26050-088, Gibco), pH=7.2]. Cultures were maintained at 37° C. in a 5% CO2 humidified cabin and let to stabilize. After 7 days in vitro (DIV), DL-threo-b-hydroxyaspartic acid (THA; 100 μM) was added to induce chronic excitotoxicity (Rothstein et al., 1993). The neuroprotective effect of each Sig-1R ligand was assessed by its coaddition to the culture with THA and renewing at each medium change. […] In vitro experiments were performed in three independent cultures, with at least 12 different SCOCs for each experimental condition.
Slices were maintained for 28 DIV and then fixed with 4% paraformaldehyde. […] MN survival was assessed by counting all SMI-32 positive neurons in each spinal cord using the Cell Counter plugin of ImageJ software.

[8] = target: human Sig-1R (Homo sapiens, UniProt Q99720); assay: Affinity for the human Sig-1R; format: binding
Sequence of human Sig-1R (Q99720 whole entry): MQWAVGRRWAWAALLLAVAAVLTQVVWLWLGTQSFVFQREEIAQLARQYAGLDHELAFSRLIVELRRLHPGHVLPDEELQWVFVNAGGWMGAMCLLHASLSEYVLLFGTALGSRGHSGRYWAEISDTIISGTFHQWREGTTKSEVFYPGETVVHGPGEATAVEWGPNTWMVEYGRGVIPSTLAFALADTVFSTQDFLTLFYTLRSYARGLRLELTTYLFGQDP
Method: as §1

[9] = Plasma levels in the rhizotomy model after chronic i.p. administration; set-up: species or system female mice (B6SJL); settings: mouse, in vivo, ip, 0.25 mg/kg
[10] = cited from earlier work
[11] = 0.5 mg/kg bid i.p., not significant
[12] = 5 mg/kg bid i.p., untreated 19×10^4±5×10^4
[13] = 5 mg/kg bid i.p., untreated 26×10^4±3×10^4
[14] = twice daily i.p. administration for 6 weeks
[15] = 5 mg/kg i.p. bid, untreated 6.9±0.5, WT 25.3±0.5
[16] = female, C57-BL6, mouse, brain, ip, 10 mg/kg
[17] = female, C57-BL6, mouse, plasma, ip, 10 mg/kg

| SMILES | number of spinal MNs in the ipsilateral ventral horn (L4-L5) [1, 11] | astroglial reactivity, GFAP integrated density [1, 12] | microglial reactivity, IBA1 integrated density [1, 13] | toxicity on chronic administration [1, 14] | concentration at 15 min ([3]; 5 mg/kg) | AUC, brain ([4]; brain) | Cmax, brain ([4]; brain) | penetration into the brain [4] | NMJ innervation (proportion of innervated endplates) of hindlimb muscle [5] | number of surviving spinal MNs per section [5, 15] | astrocyte activation (GFAP) in ventral horn [5] | IC50 [6] | affinity for the human Sig-1R [8] | CMAP amplitude of TA and plantar muscles [5] | also measured |
| --- | --- | --- | --- | --- | --- | --- | --- | --- | --- | --- | --- | --- | --- | --- | --- |
| CCN1CC2(CCN(Cc3ccc(C#N)c(F)c3)CC2)O[C@@H](C)C1=O [Compound B, (S)-4-((4-ethyl-2-methyl-3-oxo-1-oxa-4,9-diazaspiro[5.5]undecan-9-yl)methyl)-2-fluorobenzonitrile] | 7.4±0.7 | 15×10^4±2.7×10^4 | 25×10^4±4×10^4 | did not cause toxicity | ~500 ng/mL | 1698 ng·h/g | 2652 ng/g | good penetration into the brain | tendency to preserve NMJ innervation | 8.5±1.0 | significant decrease of astrocyte activation | > 10 µM | high affinity |  | body weight compared with the vehicle group [1, 14]: no difference in body weight; AUC [2]: 802 ng·h/mL; Cmax [2]: 1340 ng/mL; Kp [2]: 2.1; Tmax [2]: 0.25 h; half-life ([2]; brain): 3.4 h; half-life ([2]; plasma): 2.2 h; preservation of MNs (SMI-32 positive) vs THA condition ([7]; 3 and 30 μM): significantly preserved MNs |
| C[C@@H]1OC2(CCN(Cc3ccc(F)cc3)CC2)CN(C)C1=O [Compound A, (S)-9-(4-fluorobenzyl)-2,4-dimethyl-1-oxa-4,9-diazaspiro[5.5]undecan-3-one] | 7.6±0.9 | 4×10^4±0.4×10^4 | 13×10^4±2×10^4 | did not cause toxicity | ~500 ng/mL | 4873 ng·h/g | 5405 ng/g | good penetration into the brain | tendency to preserve NMJ innervation | 10.8±1.1 | significant decrease of astrocyte activation | > 10 µM | high affinity | significantly prevented the decline in amplitude of the CMAP | number of spinal MNs in the ipsilateral ventral horn (L4-L5) ([1]; 5 mg/kg/bid i.p. for 6 weeks, untreated injured 6.8±0.3): 8.6±0.6; estimated brain concentration ([3]; 5 mg/kg): about two-fold the concentration of compound B; Kp ([4]; female, C57-BL6, mouse, brain and plasma, ip, 10 mg/kg): 4.4; Tmax [4, 16]: 0.25 h; half-life [4, 16]: > 5 h; AUC [4, 17]: 1120 ng·h/mL; Cmax [4, 17]: 1350 ng/mL; Tmax [4, 17]: 0.25 h; half-life [4, 17]: > 5 h; number of SMI-32 positive neurons vs THA condition ([7]; tested at 0.03, 0.3, 3 and 30 μM, significant at three concentrations): significantly more SMI-32 positive neurons |
| O=C(OCCN1CCOCC1)C1(c2ccccc2)CCCCC1 [PRE-084, reference compound] |  |  |  |  |  |  |  |  | significantly increased the proportion of innervated endplates |  | significant decrease of astrocyte activation |  | good affinity | higher CMAP amplitude values | astroglial reactivity, GFAP integrated density ([1]; 0.25 mg/kg bid i.p.): 6×10^4±0.9×10^4; microglial reactivity, IBA1 integrated density ([1]; 0.25 mg/kg bid i.p.): 15×10^4±1.4×10^4; number of spinal MNs in the ipsilateral ventral horn (L4-L5) ([1]; 0.25 mg/kg bid i.p., positive control): 8.9±0.4; Plasma concentration 30 min post-administration [9]: 3.6 ng/mL; Plasma concentration 30 min post-administration ([3]; 0.25 mg/kg): 2.6 ng/mL; number of surviving spinal MNs per section ([5]; 0.25 mg/kg i.p. bid): 12.4±0.9; Cmax, plasma ([10]; mouse, in vivo, ip, 10 mg/kg): 659 ng/mL; Cmax, brain ([10]; single i.p. 10 mg/kg, concentration at 5 min post-administration, brain): 774 ng/g |
